Measurements published in patent publication US20230203081A1, “LINCOSAMIDE ANTIBIOTICS AND USES THEREOF” (President and Fellows of Harvard College, priority 2020, published 2023).
Values after ≈ are worked out from the molar mass of the structure shown. Where two headings read alike, the source gives them in different places.

Columns and labels:
Format in all cases: cell-based
S. pyogenes ATCC 19615 = experiment: MIC (broth microdilution or agar dilution, CLSI); details: Streptococcus pyogenes
Method in brief: (§1)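 Isolates other than streptococci and anaerobes, which had their own procedures, were grown overnight at 35° C on tryptic soy agar with 5% sheep blood. Suspensions were then diluted to a final inoculum of 5×10^5 CFU/mL in broth microdilution wells.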

H. influenzae ATCC 49247 = experiment: MIC (broth microdilution or agar dilution, CLSI)
Method in brief: as §1

E. coli ATCC 25922 = experiment: MIC (broth microdilution or agar dilution, CLSI)
Method in brief: as §1

P. aeruginosa ΔAmex OprM = experiment: MIC (broth microdilution or agar dilution, CLSI)
Method in brief: (§2)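 Triplicate CLSI determinations by broth or agar dilution, compound at 128-0.06 μg/mL in 2.5% DMSO; special handling for anaerobes. Broth microdilution used 5×10^5 CFU/mL inocula in cation-adjusted Mueller-Hinton broth.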

P. aeruginosa ATCC 27853 = experiment: MIC (broth microdilution or agar dilution, CLSI)
Method in brief: as §2

A. baumannii ATCC 19606 = experiment: MIC (broth microdilution or agar dilution, CLSI)
Method in brief: as §1

K. oxytoca Clinical = experiment: MIC (broth microdilution or agar dilution, CLSI)
Method in brief: as §1

E. faecium Line R & VRE = experiment: MIC (broth microdilution or agar dilution, CLSI); details: Enterococcus faecium, read-out: MIC
Method in brief: as §2

E. faecalis VRE [1] = experiment: MIC (CLSI), second E. faecalis VRE line of Table 4; details: Enterococcus faecalis; E. faecalis VRE (Table 4, second VRE line); read-out: MIC
Protocol: (§3) Minimum inhibitory concentrations (MICs) were determined by broth microdilution method or agar dilution method following the Clinical and Laboratory Standards Institute guidelines. Standard bacterial strains were obtained from American Type Culture Collection (ATCC). Other bacterial strains were obtained from hospitals and commercial sources, so noted in Table 11. Before the start of the MIC experiment, standard and test compound stock solutions were prepared in dimethyl sulfoxide (DMSO, Aldrich D2650) at a stock concentration of 5,120 μg/mL. The compound concentration range typically employed for each experiment was 128-0.06 μg/mL (2.5% final DMSO concentration). Clindamycin was used as a comparator in all experiments and each experiment was performed in triplicate. Specialized procedures were employed for streptococcal and anaerobic strains. All other bacterial strains were sub-cultured on blood agar plates (tryptic soy agar with 5% sheep blood, Hardy Diagnostics) and incubated overnight at 35° C. Organisms were suspended in cation-adjusted Mueller-Hinton broth (CaMHB, BD 212322) and optical density was adjusted to 0.5 McFarland standard. Suspensions were further diluted to obtain a final inoculum of 5×10^5 CFU/mL for broth microdilution experiments.

Escherichia coli c-ermB = experiment: MIC, clinically derived E. coli with acquired resistance
Protocol: as §3

E. coli strain SQ110DTC = experiment: MIC in LB medium against E. coli SQ110DTC and its FSA-513018b-resistant mutants (Table 14); details: Escherichia coli
E. faecium VRE = experiment: MIC (broth microdilution or agar dilution, CLSI); details: Enterococcus faecium; E. faecium VRE; read-out: MIC
Method in brief: as §2

C. difficile ATCC 700057 = experiment: MIC (broth microdilution or agar dilution, CLSI)
Method in brief: as §2

E. faecium Clinical VRE = experiment: MIC (broth microdilution or agar dilution, CLSI); details: Enterococcus faecium; E. faecium Clinical VRE; read-out: MIC
Method in brief: as §2

S. aureus MRSA = experiment: MIC (broth microdilution or agar dilution, CLSI); details: Staphylococcus aureus
Method in brief: as §2

B. fragilis ATCC 25285 = experiment: MIC (broth microdilution or agar dilution, CLSI); details: Bacteroides fragilis, read-out: MIC
Method in brief: as §2

S. aureus cErmA = experiment: MIC (broth microdilution or agar dilution, CLSI); details: Staphylococcus aureus; S. aureus cErmA; read-out: MIC
Method in brief: as §2

[2] = tested on: E. coli MP-74 LptD mutant; experiment: MIC (broth microdilution or agar dilution, CLSI); details: Escherichia coli
Method in brief: as §2

C. scindens ATCC 35704 = experiment: MIC (broth microdilution or agar dilution, CLSI)
Method in brief: as §2

E. faecalis VRE [3] = experiment: MIC (CLSI), third E. faecalis VRE line of Table 4; details: Enterococcus faecalis; E. faecalis VRE (Table 4, third VRE line); read-out: MIC
Protocol: as §3

[4] = Pseudomonas aeruginosa, ATCC27853, P. aeruginosa HAV#009, ATCC 27853, read-out: MIC
[5] = ATCC19615, S. pyogenes HAV#004, ATCC 19615, read-out: MIC
[6] = Escherichia coli, ATCC25922, E. coli HAV#006, ATCC 25922, read-out: MIC
[7] = Klebsiella oxytoca, K. oxytoca HAV#450, Clinical, read-out: MIC
[8] = E. faecium HAV#319, Line R & Vanco R

With CN[C@H](CC(C)C)C(=O)N[C@H]1C(=O)N[C@@H](CC(N)=O)C(=O)N[C@H]2C(=O)N[C@H]3C(=O)N[C@H](C(=O)N[C@H](C(=O)O)c4cc(O)cc(O)c4-c4cc3ccc4O)[C@H](O)c3ccc(c(Cl)c3)Oc3cc2cc(c3O[C@@H]2O[C@H](CO)[C@@H](O)[C@H](O)[C@H]2O[C@H]2C[C@](C)(N)[C@H](O)[C@H](C)O2)Oc2ccc(cc2Cl)[C@H]1O [Vancomycin] the MIC (S. pyogenes ATCC 19615; ATCC19615) was 0.5 µg/mL (≈ 0.345 µM), the MIC (H. influenzae ATCC 49247; Haemophilus influenzae, ATCC49247) was > 64 µg/mL and the MIC (E. coli ATCC 25922; Escherichia coli, ATCC25922) was > 128 µg/mL.
C[C@H]1COc2c(N3CCN(C)CC3)c(F)cc3c(=O)c(C(=O)O)cn1c23 [Levofloxacin] gave an MIC (P. aeruginosa ΔAmex OprM; Pseudomonas aeruginosa) of 0.125 µg/mL (≈ 0.346 µM), an MIC (P. aeruginosa ATCC 27853; [4]) of 2 µg/mL (≈ 5.53 µM) and an MIC (S. pyogenes ATCC 19615; [5]) of 0.5 µg/mL (≈ 1.38 µM). The MIC (A. baumannii ATCC 19606; Acinetobacter baumannii, ATCC19606, A. baumanii HAV#010, ATCC 19606, read-out: MIC) was 1 µg/mL (≈ 2.77 µM), the MIC (E. coli ATCC 25922; [6]) was ≤ 0.06 µg/mL and the MIC (K. oxytoca Clinical; [7]) was 0.5 µg/mL (≈ 1.38 µM).
In the case of CO/N=C(\C(=O)N[C@@H]1C(=O)N2C(C(=O)O)=C(CSc3nc(=O)c(=O)[nH]n3C)CS[C@H]12)c1csc(N)n1 [Ceftriaxone], the MIC (E. faecium Line R & VRE; [8]) is reported as > 256 µg/mL, the MIC (P. aeruginosa ΔAmex OprM; Pseudomonas aeruginosa) is reported as 16 µg/mL (≈ 28.9 µM) and the MIC (P. aeruginosa ATCC 27853; [4]) is reported as > 64 µg/mL. For the same molecule, the MIC (S. pyogenes ATCC 19615; [5]) was 0.06 µg/mL (≈ 0.108 µM), the MIC (E. coli ATCC 25922; [6]) was 0.125 µg/mL (≈ 0.225 µM) and the MIC (K. oxytoca Clinical; [7]) was 64 µg/mL (≈ 115 µM).
Work on CSC1O[C@H]([C@H](NC(=O)[C@H]2NC[C@@H]3C[C@H](CC(C)C)CCO[C@H]32)[C@H](C)Cl)C(O)[C@@H](O)[C@H]1O (stereo partly shown) [FSA-513018b] yielded an MIC (E. faecalis VRE [1]) of 1 µg/mL (≈ 2.02 µM), an MIC (Escherichia coli c-ermB; E. coli HAV#504, Clinical, cErmB) of 8 µg/mL (≈ 16.2 µM) and an MIC (Escherichia coli c-ermB; Escherichia coli) of 8 µg/mL (≈ 16.2 µM). It also gave an MIC (E. coli strain SQ110DTC; E. coli SQ110DTC, WT) of 0.03 µg/mL (≈ 0.0606 µM), an MIC (E. coli strain SQ110DTC; clone SA-3R1, mutation 2058G, selection plate 1 μg/mL FSA-513018b) of 4 µg/mL (≈ 8.08 µM) and an MIC (E. coli strain SQ110DTC; clone SA-3R2, mutation 2059G, selection plate […] FSA-513018b) of 2 µg/mL (≈ 4.04 µM). The MIC (E. coli strain SQ110DTC; clone SA-3R9, mutation 2058G, selection plate […] FSA-513018b) was 4 µg/mL (≈ 8.08 µM), the MIC (E. coli strain SQ110DTC; clone SA-3R13, mutation 2059G, selection plate 1 μg/mL FSA-513018b) was 2 µg/mL (≈ 4.04 µM) and the MIC (E. coli strain SQ110DTC; read-out: MICs of resistant clones, SQ110DTC clones selected on agar containing FSA-513018b (A2058G or A2059G in 23S rRNA)) was 2 to 4 µg/mL (≈ 4.04 to 8.08 µM). It also gave an MIC (E. faecium VRE) of 1 µg/mL (≈ 2.02 µM), an MIC (C. difficile ATCC 700057; C. difficile HAV#011, ATCC 700057) of 0.25 µg/mL (≈ 0.505 µM) and an MIC (C. difficile ATCC 700057; Clostridioides difficile, ATCC700057, C. difficile ATCC 700057, read-out: MIC) of 0.25 µg/mL (≈ 0.505 µM). The MIC (E. faecium Clinical VRE) was 1 µg/mL (≈ 2.02 µM), the MIC (E. faecium Line R & VRE; [8]) was ≤ 0.06 µg/mL and the MIC (E. faecium Line R & VRE; E. faecium Line R & VRE) was 0.06 µg/mL (≈ 0.121 µM). It also gave an MIC (S. aureus MRSA) of 0.06 µg/mL (≈ 0.121 µM), an MIC (P. aeruginosa ΔAmex OprM; P. aeruginosa HAV#039, ΔAmex OprM) of 4 µg/mL (≈ 8.08 µM) and an MIC (P. aeruginosa ΔAmex OprM; Pseudomonas aeruginosa) of 4 µg/mL (≈ 8.08 µM). It also gave an MIC (P. aeruginosa ATCC 27853; P. aeruginosa HAV#009, ATCC 27853) of 128 µg/mL (≈ 259 µM), an MIC (P. aeruginosa ATCC 27853; Pseudomonas aeruginosa, ATCC27853, P. aeruginosa ATCC 27853, read-out: MIC) of 128 µg/mL (≈ 259 µM) and an MIC (B. fragilis ATCC 25285; ATCC25285, B. fragilis ATCC 25285) of 0.5 µg/mL (≈ 1.01 µM). The MIC (B. fragilis ATCC 25285; ATCC25285, B. fragilis HAV#013, ATCC 25285) was 0.5 µg/mL (≈ 1.01 µM), the MIC (S. aureus cErmA) was 4 µg/mL (≈ 8.08 µM) and the MIC [2] was 1 µg/mL (≈ 2.02 µM). The MIC (C. scindens ATCC 35704; C. scindens HAV#012, ATCC 35704) was 0.125 µg/mL (≈ 0.252 µM), the MIC (C. scindens ATCC 35704; [Clostridium] scindens, ATCC35704, C. scindens ATCC 35704, read-out: MIC) was 0.125 µg/mL (≈ 0.252 µM) and the MIC (S. pyogenes ATCC 19615; ATCC19615, S. pyogenes ATCC 19615, read-out: MIC) was ≤ 0.06 µg/mL. The MIC (S. pyogenes ATCC 19615; [5]) was 0.03 µg/mL (≈ 0.0606 µM), the MIC (H. influenzae ATCC 49247; H. influenzae HAV#007, ATCC 49247) was 1 µg/mL (≈ 2.02 µM) and the MIC (H. influenzae ATCC 49247; Haemophilus influenzae, ATCC49247, H. influenzae ATCC 49247, read-out: MIC) was 1 µg/mL (≈ 2.02 µM). The MIC (A. baumannii ATCC 19606; A. baumanii HAV#010, ATCC 19606) was 4 µg/mL (≈ 8.08 µM), the MIC (A. baumannii ATCC 19606; Acinetobacter baumannii, ATCC19606, A. baumannii ATCC 19606, read-out: MIC) was 4 µg/mL (≈ 8.08 µM) and the MIC (E. coli ATCC 25922; E. coli HAV#006, ATCC 25922) was 8 µg/mL (≈ 16.2 µM). It also gave an MIC (E. coli ATCC 25922; Escherichia coli, ATCC25922, E. coli ATCC 25922, read-out: MIC) of 8 µg/mL (≈ 16.2 µM), an MIC (K. oxytoca Clinical; K. oxytoca HAV#450, Clinical) of 8 µg/mL (≈ 16.2 µM) and an MIC (K. oxytoca Clinical; Klebsiella oxytoca, K. oxytoca Clinical, read-out: MIC) of 8 µg/mL (≈ 16.2 µM). For the same molecule, the MIC (E. faecalis VRE [3]) was 1 µg/mL (≈ 2.02 µM).
